Data on 18 molecules can be found in paper PMC9737349, “Discovery of 5-Methylthiazole-Thiazolidinone Conjugates as Potential Anti-Inflammatory Agents: Molecular Target Identification and In Silico Studies” (Molecules, 2022).

Assay [1] concerns carrageenan-induced mouse paw edema. Nature of the assay: Carrageenan-induced mouse paw oedema. The assay is classed as in vivo. As to conditions: mice, i.p. 0.15 mmol/kg 5 min before carrageenan, paw weight increase after 3.5 h; for inhibition in vivo at 150 µmol/kg: Mus musculus, ip. The protocol:
For the study of possible anti-inflammatory action, the swelling caused in the sole of the right hind limb by intradermal administration of carrageenan was used as a model of inflammation. Carrageenan-induced edema is a non-specific inflammation that results from a number of different transmitters and resembles human acute inflammation.
The animals were weighed and divided into control, standard and test groups. Each group contained 10 mice. […] An aqueous solution of carrageenan 0.1 mL, 1% w/v) was injected subcutaneously to the sub-plantar region of the right hind paw, with the left paw as control. The tested compounds (suspended in water with a few drops of Tween 80) were given i.p. (0.15 mmol/kg) 5 min before the carrageenan administration. After 3.5 h, the hind paws were excised and were weighed separately. The produced oedema was estimated as a paw weight increase.
In general terms: In the carrageenan paw model, swelling and tenderness develop within hours.

The target in assay [2] is T1, human recombinant COX-2 (Homo sapiens, UniProt P35354).
T1 construct: purchased Cayman Chemical Co., Ann Arbor, MI
T1 sequence (P35354 18-604): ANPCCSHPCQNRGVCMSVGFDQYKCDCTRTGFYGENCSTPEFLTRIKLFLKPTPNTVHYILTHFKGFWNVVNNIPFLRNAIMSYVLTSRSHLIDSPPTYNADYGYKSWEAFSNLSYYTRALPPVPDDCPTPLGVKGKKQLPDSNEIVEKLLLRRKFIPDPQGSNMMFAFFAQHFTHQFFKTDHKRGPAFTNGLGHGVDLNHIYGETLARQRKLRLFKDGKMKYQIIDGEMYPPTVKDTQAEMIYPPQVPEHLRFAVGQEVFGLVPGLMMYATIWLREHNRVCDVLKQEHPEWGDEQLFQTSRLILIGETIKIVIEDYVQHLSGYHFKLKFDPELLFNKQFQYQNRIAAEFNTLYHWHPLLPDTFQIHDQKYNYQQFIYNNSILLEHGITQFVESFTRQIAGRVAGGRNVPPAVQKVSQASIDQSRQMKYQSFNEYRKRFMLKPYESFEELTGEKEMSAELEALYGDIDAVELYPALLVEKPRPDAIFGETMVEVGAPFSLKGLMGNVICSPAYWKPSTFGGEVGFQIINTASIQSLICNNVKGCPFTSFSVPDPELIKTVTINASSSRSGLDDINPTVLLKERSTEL
In words: Inhibition of COX-2 activity (Cayman COX Inhibitor Screening Assay kit). Conditions: read-out: Inhibition, COX-2, Inhibition (%) 200 μM. The assay is classed as biochemical. The procedure: (§1) The effect of compounds on COX-1 and COX-2 inhibition was measured using a commercial kit provided by Cayman (Cayman Chemical Co., Ann Arbor, MI), applying the instructions of the manufacturer. The kit uses ovine COX-1 and human recombinant COX-2 enzymes. […] The assay measures PGF2a produced by SnCl2 reduction of COX-derived PGH2.

Assay [3] has as its target T2, ovine COX-1 (Ovis aries, UniProt P05979).
T2 construct: purchased Cayman Chemical Co., Ann Arbor, MI
T2 sequence (P05979 25-600): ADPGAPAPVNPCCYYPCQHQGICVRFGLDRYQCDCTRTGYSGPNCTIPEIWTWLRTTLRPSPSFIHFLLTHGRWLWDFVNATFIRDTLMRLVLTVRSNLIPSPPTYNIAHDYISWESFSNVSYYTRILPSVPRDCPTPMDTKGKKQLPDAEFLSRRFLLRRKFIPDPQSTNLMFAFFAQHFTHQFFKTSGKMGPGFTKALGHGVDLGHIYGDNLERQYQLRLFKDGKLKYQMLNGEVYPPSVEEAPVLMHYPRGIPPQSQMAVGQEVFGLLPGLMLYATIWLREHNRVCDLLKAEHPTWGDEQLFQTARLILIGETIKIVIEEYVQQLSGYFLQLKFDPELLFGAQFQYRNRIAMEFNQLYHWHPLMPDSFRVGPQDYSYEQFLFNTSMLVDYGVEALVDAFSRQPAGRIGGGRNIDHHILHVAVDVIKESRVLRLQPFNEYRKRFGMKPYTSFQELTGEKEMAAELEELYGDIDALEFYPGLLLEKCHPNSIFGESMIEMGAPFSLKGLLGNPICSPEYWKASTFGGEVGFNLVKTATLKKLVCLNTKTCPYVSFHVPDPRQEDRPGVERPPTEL
Nature of the assay: Inhibition of COX-1 activity (Cayman COX Inhibitor Screening Assay kit). It is filed as biochemical. The procedure:
as §1

Assay [4] deals with T3, soybean LOX (Glycine max, UniProt P08170).
T3 construct: purchased Sigma (St. Louis, MO, USA)
T3 sequence (P08170 1-839): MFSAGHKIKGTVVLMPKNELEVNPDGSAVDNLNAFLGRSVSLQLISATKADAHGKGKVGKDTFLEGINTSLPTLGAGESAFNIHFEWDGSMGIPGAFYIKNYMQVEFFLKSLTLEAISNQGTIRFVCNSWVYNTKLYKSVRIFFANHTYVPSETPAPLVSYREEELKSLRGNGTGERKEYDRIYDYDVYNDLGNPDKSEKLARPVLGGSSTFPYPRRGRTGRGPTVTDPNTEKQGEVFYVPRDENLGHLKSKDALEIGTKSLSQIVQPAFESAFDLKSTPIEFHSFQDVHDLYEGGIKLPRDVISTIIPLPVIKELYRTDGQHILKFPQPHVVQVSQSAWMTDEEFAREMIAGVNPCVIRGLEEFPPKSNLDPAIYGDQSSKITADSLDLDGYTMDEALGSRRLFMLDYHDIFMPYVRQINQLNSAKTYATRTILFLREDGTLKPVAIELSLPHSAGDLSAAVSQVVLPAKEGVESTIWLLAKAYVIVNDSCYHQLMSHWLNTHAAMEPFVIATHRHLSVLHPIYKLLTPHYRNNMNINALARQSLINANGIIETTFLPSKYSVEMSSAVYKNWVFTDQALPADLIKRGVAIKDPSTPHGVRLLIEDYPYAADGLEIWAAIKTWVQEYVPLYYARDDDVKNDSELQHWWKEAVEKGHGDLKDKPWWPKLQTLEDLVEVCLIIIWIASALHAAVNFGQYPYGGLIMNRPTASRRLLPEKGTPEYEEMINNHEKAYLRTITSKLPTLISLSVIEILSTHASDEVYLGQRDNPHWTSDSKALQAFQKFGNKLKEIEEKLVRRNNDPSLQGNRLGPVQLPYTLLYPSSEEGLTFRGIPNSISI
Nature of the assay: Inhibition of LOX activity. The assay is classed as biochemical. The procedure: The reaction mixture contained (final concentration 300 μM) the test compounds, dissolved in absolute ethanol (10–300 μM), or the solvent (control), soybean LOX, dissolved in 0.9% NaCl solution (250 u/mL) and sodium linoleate (100 μM), in Tris-HCl buffer, pH 9.0. The reaction was followed for 7 min at 28 °C, recording the absorbance (234 nm) of a conjugated diene structure, due to the formation of 13-hydroperoxy-linoleic acid. […] For the estimation of the type of inhibition, the above experiments were repeated, using 1 mM sodium linoleate, which is higher than the saturating substrate concentration.

The inhibition in vivo is the drop in the measured response relative to a control, in per cent. For `Cc1cnc(N=C2NC(=O)C(=Cc3ccccc3)S2)s1` [Compound 1], the inhibition in vivo at 150 µmol/kg in assay [1] is 51.6 ± 1.5%.

For `Cc1cnc(N=C2NC(=O)C(=Cc3ccccc3O)S2)s1` [Compound 2], in assay [1], the inhibition in vivo at 150 µmol/kg was found to be 43.1 ± 1.9%.

For `Cc1cnc(N=C2NC(=O)C(=Cc3ccc(O)cc3)S2)s1` [Compound 3], in assay [1], the inhibition in vivo at 150 µmol/kg was 31.4% and the “Oedema Inhibition (%)” value was 31.4 ± 2.3 %.

The molecule `COc1ccc(C=C2SC(=Nc3ncc(C)s3)NC2=O)cc1` [Compound 4] came in with an inhibition in vivo at 150 µmol/kg in assay [1] of 48.3 ± 1.8%.

In turn, `COc1ccc(OC)c(C=C2SC(=Nc3ncc(C)s3)NC2=O)c1` [Compound 5] yielded an inhibition in vivo at 150 µmol/kg in assay [1] of 44.9 ± 1.7%.

`Cc1cnc(N=C2NC(=O)C(=Cc3ccccc3[N+](=O)[O-])S2)s1` [Compound 6]: in assay [1], the inhibition in vivo at 150 µmol/kg was 48.7 ± 1.8%.

`Cc1cnc(N=C2NC(=O)C(=Cc3cccc([N+](=O)[O-])c3)S2)s1` [Compound 7] showed an inhibition in vivo at 150 µmol/kg in assay [1] of 54.5 ± 1.4%.

Usually inhibition stands for the change of the read-out against control, counted positive when it falls. What is called IC50 is the concentration at which inhibition is half-maximal. A low value points to inhibition by little substance. For the molecule `Cc1cnc(N=C2NC(=O)C(=Cc3ccc([N+](=O)[O-])cc3)S2)s1` [Compound 8], the inhibition at 200 µM in assay [2] is 0%. In assay [3], this molecule registered an IC50 of 14400 ± 700 nM and an inhibition at 200 µM of 100%. Further, in assay [1], the inhibition in vivo at 150 µmol/kg was 55.4% and the “Oedema Inhibition (%)” value stood at 55.4 ± 1.5 %. In assay [4], this molecule displayed an inhibition at 100 µM of 7.88 ± 2.1%.

`Cc1cnc(N=C2NC(=O)C(=Cc3cccc(F)c3)S2)s1` [Compound 9]: the inhibition in vivo at 150 µmol/kg in assay [1] came to 34.8 ± 2.1%.

`Cc1cnc(N=C2NC(=O)C(=Cc3ccc(F)cc3)S2)s1` [Compound 10] came in with an inhibition in vivo at 150 µmol/kg in assay [1] of 47.8 ± 1.6%.

Consider `Cc1cnc(N=C2NC(=O)C(=Cc3ccccc3Cl)S2)s1` [Compound 11], for which the inhibition in vivo at 150 µmol/kg in assay [1] worked out at 43 ± 1.7%.

With `Cc1cnc(N=C2NC(=O)C(=Cc3ccc(Cl)cc3)S2)s1` [Compound 12], in assay [1], the inhibition in vivo at 150 µmol/kg amounted to 55.6% and the “Oedema Inhibition (%)” value is 55.6 ± 1.5 %.

`Cc1cnc(N=C2NC(=O)C(=Cc3cccc(Cl)c3Cl)S2)s1` [Compound 13]: in assay [2], the inhibition at 200 µM was found to be 0%. In assay [3], this molecule gave an IC50 of 1100 ± 300 nM and an inhibition at 200 µM of 100%. In assay [1], the inhibition in vivo at 150 µmol/kg stood at 57.8% and the “Oedema Inhibition (%)” value is 57.8 ± 1.3 %. The molecule further registered an inhibition at 100 µM in assay [4] of 37.2 ± 1.8%.

In assay [1], `Cc1cnc(N=C2NC(=O)C(=Cc3ccc(Cl)cc3Cl)S2)s1` [Compound 14] registered an inhibition in vivo at 150 µmol/kg of 35.2 ± 2.1%.

As for `Cc1cnc(N=C2NC(=O)C(=Cc3c(Cl)cccc3Cl)S2)s1` [Compound 15], in assay [1], the inhibition in vivo at 150 µmol/kg stood at 39.4 ± 2.3%.

Consider `Cc1cnc(N=C2NC(=O)C(=Cc3cccc(Br)c3)S2)s1` [Compound 16], for which the inhibition at 200 µM in assay [2] stood at 0%. In assay [3], this molecule displayed an IC50 of 1080 ± 300 nM and an inhibition at 200 µM of 100%. In assay [1], the inhibition in vivo at 150 µmol/kg was 57.6% and the “Oedema Inhibition (%)” value is 57.6 ± 1.4 %. This molecule also showed an inhibition at 100 µM in assay [4] of 46.7 ± 1.5%.

Turning to `Cc1cnc(N=C2NC(=O)C(=Cc3ccc(Br)cc3)S2)s1` [Compound 17], the inhibition in vivo at 150 µmol/kg in assay [1] came out at 41.4 ± 1.9%.

For `COc1ccc2cc([C@H](C)C(=O)O)ccc2c1` [Naproxen, reference compound], the inhibition at 200 µM in assay [2] stood at 17 ± 2.3%.
